Reference: patent US20030224034A1, “Personal care article and method for inhibiting attachment of yeast to skin” (priority 2002, published 2003)

Test system: Candida albicans (ATCC 10231)
Assay: Visual release protocol: inhibition of C. albicans attachment to skin (tape strips and cyanoacrylate skin pulls), fluorescence microscopy cell count
Type: cell-based
Details: for % Inhibition of yeast attachment / 90 View Total (number of yeast cells) / AVG per view (number of yeast cells): 2% farnesol in TSB, 60 minutes at 33 degrees Celsius; for % Inhibition of yeast attachment: 100-((sample # of cells)/(control # of cells)x100); for 90 View Total (number of yeast cells) / AVG per view (number of yeast cells): view = 6000 um^2
Method: Candida albicans (ATCC 10231) was used in this study. C. albicans was sub-cultured onto a Sabourads medium fortified with glucose (SAB-Dex) agar plate (Becton Dickinson, Cockeysville, Md.) overnight at 37 degrees Celsius. The following day, 2-3 isolated C. albicans colonies were inoculated into 20 ml SAB-Dex broth and incubated overnight shaken at 220 rpm at 32 degrees Celsius for 18 hours. The broth culture was diluted to 1×10^5 CFU/ml with phosphate buffer (VWR Industries, Batavia, Ill.).
The following protocol was used to measure the inhibition of C. albicans to skin (skin tape strips and cyanoacrylate skin pulls) by farnesol. Skin tape strips were made by pulling D-Squame skin sampling discs (CuDerm Corporation, Dallas, Tex.) four times from adjacent adult male volar forearm sites. Cyanoacrylate pulls were done by putting a small amount of super glue on the skin then placing a glass slide on the wetted surface. The glue was allowed to dry then the slide was removed, pulling off the stratum corneum. The tape strips and glue pulls (both will be referred to as strips in subsequent descriptions) were placed into deep six-well plates (Becton Dickinson, Franklin Lakes, N.J.). The strips were then blocked with 2.0 ml of 5% Bovine Serum Albumin (BSA) (Sigma, St. Louis, Mo.) in PBS buffer (150 mM NaCl, 50 mM Potassium Phosphate (KP), pH 7.4) for 60 minutes at 33 degrees Celsius while shaking at 220 rpm.
Next, each well's fluid was removed and 1.0 ml (10^5 Colony Forming Units (CFU)/ml) C. albicans was added to each strip. Then, 1.0 ml of Trypticase Soy Broth (TSB) [Difco Labs, Detroit, Mich.] containing 2% farnesol (DRAGOCO, Totowa, N.J.) was added to each strip, and the plates incubated at 33 degrees Celsius for 60 minutes. The fluid was aspirated, and the strips were washed 3 times with 3.0 ml PBS. Both sides of each tape strip were washed with a stream of PBS then placed in fresh 6-well plates.
Each strip was fixed by adding 2.0 ml of 2.5% Glutaraldehyde (Sigma Chemical, St. Louis, Mo.) to each of the wells of the 6-well plates for 10 minutes. The tape strips were then washed 3 times with 3.0 ml distilled water and stained by adding 0.5 ml Calcofluor White (Difco, Ann Arbor, Mich.) to the wells for 10 to 15 minutes. The tape strips were again washed 3 times with distilled water and then flooded with 2 ng/ml Nile Red (Sigma Chemical, St. Louis, Mo.) and allowed to air dry.
Once the tape strips air-dried, the yeast cells were enumerated automatically utilizing a Nikon Eclipse TE 300 fluorescent microscope fitted with a DAPI excitation filter and a Triple Pass barrier filter (Tokyo, Japan). The counting procedure was automated (Table 1 and Table 2) through the use of MetaMorph (Universal Imaging, Dowingtown, Pa.) software such that each sample had 30 views. Each image view was a 6000 um^2. The total field of view was approximately 25% of the total tape strip and 75% of the cyanoacrylate pull. The percent inhibition was calculated as follows: 100-((sample # of cells)/(control # of cells)×100). Approximately 10^4 yeast cells bound to a 22-mm diameter D-Squame tape strip under these conditions.

[1] = Cyanoacrylate pull of human volar forearm skin
[2] = Tape strip of human volar forearm skin

Compound: CC(C)=CCCC(C)=CCCC(C)=CCO [Farnesol, 3,7,11-trimethyl-2,6,10-dodecatrien-1-ol]
- % Inhibition of yeast attachment [1]: 93.8%
- % Inhibition of yeast attachment (Cyanoacrylate pull of human volar forearm skin, listed as farnesol): 94%
- 90 View Total (number of yeast cells) [1]: 955
- AVG per view (number of yeast cells) [1]: 10.6
- % Inhibition of yeast attachment [2]: 63.8%
- % Inhibition of yeast attachment (Tape strip of human volar forearm skin, listed as farnesol): 64%
- 90 View Total (number of yeast cells) [2]: 6963
- AVG per view (number of yeast cells) [2]: 77.4
- inhibition of the attachment of yeast to skin (in words) (farnesol at a concentration of 2%): effectively inhibit the attachment of yeast to skin
